Columns and labels:
Assay type in all cases: cell-based
[1] = target: Sodium-dependent serotonin transporter (Homo sapiens) (UniProt P31645); assay: Inhibition of human SERT expressed in HEK293 cells using 4-[4-(Dimethylamino)phenyl]-1-methyl pyridinium as substrate assessed as fluorescent intensity at 0.1 uM after 3 hrs relative to control
[2] = target: Sodium-dependent serotonin transporter (Homo sapiens) (UniProt P31645); assay: Inhibition of human SERT expressed in HEK293 cells using 4-[4-(Dimethylamino)phenyl]-1-methyl pyridinium as substrate assessed as fluorescent intensity at 10 uM after 3 hrs relative to control
[3] = target: Sodium-dependent serotonin transporter (Homo sapiens) (UniProt P31645); assay: Inhibition of human SERT expressed in HEK293 cells using 4-[4-(Dimethylamino)phenyl]-1-methyl pyridinium as substrate assessed as fluorescent intensity at 1 uM after 3 hrs relative to control

Chain of Sodium-dependent serotonin transporter (Homo sapiens) (P31645 whole entry, looked up): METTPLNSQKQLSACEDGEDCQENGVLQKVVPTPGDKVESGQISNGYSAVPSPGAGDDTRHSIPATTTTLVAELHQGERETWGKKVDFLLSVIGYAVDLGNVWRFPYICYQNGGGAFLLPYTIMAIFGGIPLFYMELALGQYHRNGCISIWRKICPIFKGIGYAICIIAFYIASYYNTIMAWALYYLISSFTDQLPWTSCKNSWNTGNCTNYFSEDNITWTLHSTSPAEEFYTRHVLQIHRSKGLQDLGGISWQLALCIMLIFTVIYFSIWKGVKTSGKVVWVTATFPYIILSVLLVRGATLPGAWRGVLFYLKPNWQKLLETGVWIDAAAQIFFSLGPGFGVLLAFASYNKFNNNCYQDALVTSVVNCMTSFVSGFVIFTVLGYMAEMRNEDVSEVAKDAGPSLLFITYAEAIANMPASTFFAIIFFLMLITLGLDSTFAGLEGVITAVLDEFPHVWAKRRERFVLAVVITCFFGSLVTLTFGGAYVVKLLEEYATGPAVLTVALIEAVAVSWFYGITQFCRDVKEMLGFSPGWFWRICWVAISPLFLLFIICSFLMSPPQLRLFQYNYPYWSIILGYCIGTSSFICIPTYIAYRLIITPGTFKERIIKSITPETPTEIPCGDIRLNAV

Structure (SMILES)	RFU [1]	RFU [2]	RFU [3]
CC(C)C[C@]12C[C@]3(O)O[C@@]1(OC(=O)C[C@H]2C)[C@H](O)[C@]3(C)O	0.858	0.928	0.883
COC(=O)CCCNC(=O)/C=C\c1ccc(O)c(OC)c1	1.04	1.06	1.08
COC(=O)CCCNC(=O)/C=C/c1ccc(O)c(OC)c1	1.02	1.04	1.07
COc1cc(C[C@@H](CO)c2cc(C(=O)O)cc(OC)c2O)ccc1O	1.01	0.873	0.997
COc1cc([C@H]2Oc3c(OC)cc(C(=O)O)cc3[C@@H]2CO)ccc1O	1.04	1.09	1.01
CN1c2ccccc2C(NCCCCCCC(=O)O)c2ccc(Cl)cc2S1(=O)=O (centres undefined)			1.11
COc1cc([C@@H]2Oc3c(OC)cc(C(=O)O)cc3[C@H]2CO)ccc1O	0.984	1.06	1.03

— ChEMBL document CHEMBL3616372, “A novel sesquiterpene and three new phenolic compounds from the rhizomes of Acorus tatarinowii Schott” (Bioorg Med Chem Lett, 2015)
